Measured values taken from patent US11752193B2, “Administering methylation-controlled J protein (MCJ) SIRNA to a kidney cell” (University of Vermont and State Agricultural College, priority 2012, dated 2023).

Tested on: MCF7/siMCJ cells
Experiment: Intracellular ATP levels in MCF7/siMCJ cells after incubation with rotenone
Type: cell-based, human
Conditions: rotenone 10 μM, 4 h, versus medium (FIG. 3B)
Procedure: CD8 T cells and CD4 T cells were purified from spleen and lymph nodes by negative selection as previously described (Auphan et al., 1998 J Immunol 160, 4810-4821; Conze et al., 2002 J Exp Med 195, 811-823), and by positive selection using the MACS system as recommended by the manufacturer (Miltenyi Biotec, Cambridge, Mass.). Purified T cells were stimulated with plate-bound anti-CD3 (2C11) (5 μg/ml) and soluble anti-CD28 (1 μg/ml) (BD Biosciences, Sparks, Md.) mAbs. Proliferation assays were performed using purified CD8 T cells (10^5 cells/well) activated with anti-CD3 and anti-CD28 and labeled with [^3H]-thymidine as previously described (Conze et al., 2002 J Exp Med 195, 811-823). MCF7, MCF7/siMCJ, and 293T cell lines were maintained as previously described (Hatle et al., 2007 Mol Cell Biol 27, 2952-2966). Rotenone (used at 10 μM) was purchased from Sigma Aldrich (St. Louis, Mo.). Transfection of 293T cells by calcium phosphate was performed as previously described (Hatle et al., 2007 Mol Cell Biol 27, 2952-2966).
The levels of intracellular ATP were determined using […] cells (CD8 T cells, MCF7 cells, 293T cells) per sample and the ATPlite® Luminescence ATP Detection Assay System (PerkinElmer®, Waltham, Mass.) following the recommendations from the manufacturer and a TD-20/20 luminometer (Turner Biosystems, Promega®, Madison, Wis.). […]

C=C(C)[C@H]1Cc2c(ccc3c2O[C@@H]2COc4cc(OC)c(OC)cc4[C@@H]2C3=O)O1 [rotenone, Rotenone]
levels of ATP: abrogated the levels of ATP
